From US20210179586A1, “SOLID STATE FORMS OF BRANAPLAM AND THEIR PREPARATION” (TEVA PHARMACEUTICALS INTERNATIONAL GMBH, priority 2018, published 2021)
Structures can show the parent of a compound that is named as a salt.

Tests used:
[1] = Solid state (polymorphic) stability of crystalline forms on storage, humidity, heat, pressure or grinding; type: physicochemical; details: for stability (conversion to any other solid state form): 'stable' as defined in b57: less than 20% conversion at 60% RH/RT or 75% RH/40° C. for at least 1 month, or at 80-100% RH 7 days, 100° C. 30 minutes, 3 Ton 1 minute, strong grinding
Protocol: As used herein the term “stable” in relation to crystalline Branaplam and salts thereof refers to less than 20%, less than 10%, less than 5%, less than 2%, less than 1%, or less than 0.5% conversion of crystalline Branaplam and salts thereof to any other solid state form of Branaplam when kept in storage for long term stability e.g. 60% RH/RT or 75% RH/40° C. for at least 1 month. Alternatively, crystalline Branaplam and salts thereof are stable when exposed to high humidity e.g. 80-100% RH for 7 days, high temperature e.g. 100° C. for 30 minutes, high mass pressure e.g. 3 Ton for 1 minute or upon strong grinding.

[2] = Hygroscopicity: water absorption at 80% RH for 24 hours at RT, e.g. by TGA; type: physicochemical; details: 'non-hygroscopic' as defined in b56: less than 0.2% (w/w) absorption of water at 80% RH for 24 hours at RT
Protocol: As used herein the term non-hygroscopic in relation to crystalline Branaplam and salts thereof refers to less than 0.2% (w/w) absorption of water by the crystalline Branaplam, when exposed to 80% relative humidity (“RH”) for 24 hours at room temperature (“RT”), as determined, for example, by TGA.

CC1(C)CC(Oc2ccc(-c3ccc(-c4cn[nH]c4)cc3O)nn2)CC(C)(C)N1 [Branaplam hydrochloride Form C3, Branaplam hydrochloride]
stability upon heating and humidity ([1]; heating and humidity, b57 gives e.g. 100° C. for 30 minutes, 80-100% RH for 7 days): stable upon heating and humidity

CC1(C)CC(Oc2ccc(-c3ccc(-c4cn[nH]c4)cc3O)nn2)CC(C)(C)N1 [Branaplam hydrochloride Form C1, Branaplam hydrochloride]
hygroscopicity [2]: non-hygroscopic
stability (conversion to any other solid state form) ([1]; hydrochloride): surprisingly stable

CC1(C)CC(Oc2ccc(-c3ccc(-c4cn[nH]c4)cc3O)nn2)CC(C)(C)N1 [Branaplam Form B1, Branaplam]
stability (conversion to any other solid state form) [1]: stable
